Measurements from patent EP2264010A1, “Hetarylamidines” (Bayer CropScience AG, priority 2009, dated 2010).
One block for each molecule: values may come before it.

How the values were obtained:
AMARE [1] = test: Herbicidal activity, test type PE; type: in vivo; conditions: TEST-TYP PE; for pest or weed control at 320 g/ha: Amaranthus retroflexus, read-out: herbizide Wirkung AMARE; for herbizide Wirkung AMARE: 320 G/HA
ECHCG = test: Herbicidal activity, test type PE; type: in vivo; conditions: TEST-TYP PE, 320 G/HA
MATIN = test: Herbicidal activity, test type PE; type: in vivo; conditions: TEST-TYP PE; for pest or weed control at 320 g/ha: read-out: herbizide Wirkung MATIN
SETVI = test: Herbicidal activity, test type PE; type: in vivo; conditions: TEST-TYP PE; for pest or weed control at 320 g/ha: read-out: herbizide Wirkung SETVI; for herbizide Wirkung SETVI: 320 G/HA
VERPE [2] = test: Herbicidal activity, test type PE; type: in vivo; conditions: TEST-TYP PE; for pest or weed control at 320 g/ha: read-out: herbizide Wirkung VERPE; for herbizide Wirkung VERPE: 320 G/HA
LOLMU = test: Herbicidal activity, test type PE; type: in vivo; conditions: TEST-TYP PE, read-out: herbizide Wirkung LOLMU
VIOTR [3] = test: Herbicidal activity, test type PE; type: in vivo; conditions: TEST-TYP PE; for pest or weed control at 320 g/ha: read-out: herbizide Wirkung VIOTR
AMARE [4] = test: Herbicidal activity, test type PO; type: in vivo; conditions: TEST-TYP PO, 80 G/HA
PHBPU = test: Herbicidal activity, test type PO; type: in vivo; conditions: TEST-TYP PO, 80 G/HA
[5] = logP by HPLC on reversed-phase columns (C 18), EEC Directive 79/831 Annex V.A8; type: physicochemical; conditions: c18 reversed-phase hplc, reversed-phase (C 18), read-out: log p
Excerpt: Die Messung der logP Werte erfolgte gemäß EEC Directive 79/831 Annex V.A8 durch HPLC (High Performance Liquid Chromatography) an reversed-phase Säulen (C 18), mit der nachfolgenden Methode: […]

STEME = test: Herbicidal activity, test type PE; type: in vivo; conditions: TEST-TYP PE, read-out: herbizide Wirkung STEME
VIOTR [6] = test: Herbicidal activity, test type PO; type: in vivo; conditions: TEST-TYP PO, 80 G/HA
VERPE [7] = test: Herbicidal activity, test type PO; type: in vivo; conditions: TEST-TYP PO, 80 G/HA

SMILES: CCN(C)C=Nc1ncc(-c2ccc(Cl)c(C(F)(F)F)c2)cc1C [compound 58]
pest or weed control at 320 g/ha (AMARE [1]): 90% | herbizide Wirkung ECHCG (ECHCG): 90 | pest or weed control at 320 g/ha (MATIN): 80% | pest or weed control at 320 g/ha (SETVI): 90% | pest or weed control at 320 g/ha (VERPE [2]): 90%

SMILES: Cc1cnc(N=CN2CCCC2)c(-c2ccc(F)c(C(F)(F)F)c2)c1 [compound 147]
pest or weed control at 320 g/ha (VERPE [2]): 90%

SMILES: CCN(C)C=Nc1ncc(-c2cccc(Cl)c2)cc1C [compound 101]
pest or weed control at 320 g/ha (AMARE [1]): 80% | herbizide Wirkung ECHCG (ECHCG): 85 | pest or weed control at 320 g/ha (LOLMU): 80% | pest or weed control at 320 g/ha (MATIN): 95% | pest or weed control at 320 g/ha (SETVI): 90% | pest or weed control at 320 g/ha (VIOTR [3]): 80% | herbizide Wirkung AMARE (AMARE [4]): 80 | herbizide Wirkung PHBPU (PHBPU): 80

chromatographic logP [5]: 1.3
SMILES: CC(=Nc1ncc(C)cc1-c1ccc(F)c(C(F)(F)F)c1)N(C)C [compound 20]

SMILES: Cc1cc(-c2ccc(Cl)c(C(F)(F)F)c2)cnc1N=CN(C)C [compound 59]
pest or weed control at 320 g/ha (AMARE [1]): 80% | pest or weed control at 320 g/ha (MATIN): 80% | pest or weed control at 320 g/ha (STEME): 80% | pest or weed control at 320 g/ha (VERPE [2]): 80% | pest or weed control at 320 g/ha (VIOTR [3]): 80%

chromatographic logP [5]: 2
SMILES: CN(C)C=Nc1ncc(Cl)cc1-c1ccc(F)c(C(F)(F)F)c1 [compound 13]
pest or weed control at 320 g/ha (AMARE [1]): 80% | pest or weed control at 320 g/ha (VERPE [2]): 80%

SMILES: Fc1ccc(-c2cc(Cl)cnc2N=CN2CCCC2)cc1C(F)(F)F [compound 141]
pest or weed control at 320 g/ha (AMARE [1]): 80% | herbizide Wirkung SETVI (SETVI): 80

SMILES: Cc1cccc(-c2cnc(N=CN(C)C)c(C)c2)c1 [compound 106]
pest or weed control at 320 g/ha (MATIN): 80% | pest or weed control at 320 g/ha (VIOTR [3]): 80%

chromatographic logP [5]: 1.46
SMILES: Cc1cnc(N=CN2CCCC2)c(-c2ccc(F)c(C(F)(F)F)c2)c1 [compound 25]
pest or weed control at 320 g/ha (AMARE [1]): 80% | pest or weed control at 320 g/ha (SETVI): 80%

chromatographic logP [5]: 1.33
SMILES: Cc1cnc(N=CN(C)C)c(-c2ccc(F)c(C(F)(F)F)c2)c1 [compound 19]

SMILES: CCN(C)C=Nc1ncc(Cl)cc1-c1ccc(Cl)c(C(F)(F)F)c1 [compound 4]
pest or weed control at 320 g/ha (AMARE [1]): 90% | pest or weed control at 320 g/ha (SETVI): 90% | pest or weed control at 320 g/ha (VIOTR [3]): 80%

SMILES: Cc1cc(-c2ccc(F)c(C(F)(F)F)c2)cnc1N=CN(C)C [compound 64]
pest or weed control at 320 g/ha (AMARE [1]): 90% | pest or weed control at 320 g/ha (LOLMU): 90% | pest or weed control at 320 g/ha (MATIN): 100% | pest or weed control at 320 g/ha (SETVI): 90% | pest or weed control at 320 g/ha (STEME): 90% | pest or weed control at 320 g/ha (VERPE [2]): 100% | pest or weed control at 320 g/ha (VIOTR [3]): 90% | herbizide Wirkung AMARE (AMARE [4]): 80 | herbizide Wirkung VIOTR (VIOTR [6]): 80

SMILES: Cc1cnc(N=CN(C)C)c(-c2cccc(C(F)(F)F)c2)c1 [compound 31]
pest or weed control at 320 g/ha (SETVI): 80% | pest or weed control at 320 g/ha (VERPE [2]): 80%

chromatographic logP [5]: 1.75
SMILES: CCN(C=Nc1ncc(C)cc1-c1ccc(Cl)c(C(F)(F)F)c1)CC [compound 7]

chromatographic logP [5]: 2.59
SMILES: CCN(C=Nc1ncc(Cl)cc1-c1ccc(F)c(C(F)(F)F)c1)CC [compound 15]
pest or weed control at 320 g/ha (AMARE [1]): 80% | pest or weed control at 320 g/ha (MATIN): 80% | pest or weed control at 320 g/ha (SETVI): 80% | pest or weed control at 320 g/ha (STEME): 80% | herbizide Wirkung AMARE (AMARE [4]): 90 | herbizide Wirkung VERPE (VERPE [7]): 80 | herbizide Wirkung VIOTR (VIOTR [6]): 80

chromatographic logP [5]: 1.63
SMILES: Cc1cnc(N=CN2CCCC2)c(-c2ccc(Cl)c(C(F)(F)F)c2)c1 [compound 10]

SMILES: CCN(C)C=Nc1ncc(C)cc1-c1cccc(C(F)(F)F)c1 [compound 32]
pest or weed control at 320 g/ha (AMARE [1]): 80% | pest or weed control at 320 g/ha (MATIN): 90% | pest or weed control at 320 g/ha (SETVI): 90% | pest or weed control at 320 g/ha (VERPE [2]): 80% | pest or weed control at 320 g/ha (VIOTR [3]): 80%

SMILES: Cc1cc(-c2cccc(Cl)c2)cnc1N=CN(C)C [compound 102]
pest or weed control at 320 g/ha (LOLMU): 80% | pest or weed control at 320 g/ha (MATIN): 90% | pest or weed control at 320 g/ha (SETVI): 90% | pest or weed control at 320 g/ha (VIOTR [3]): 80%

SMILES: Cc1cc(-c2cccc(C(F)(F)F)c2)cnc1N=CN(C)C [compound 76]
pest or weed control at 320 g/ha (AMARE [1]): 90% | pest or weed control at 320 g/ha (SETVI): 100% | pest or weed control at 320 g/ha (VIOTR [3]): 90%

SMILES: CCN(C)C=Nc1ncc(-c2cccc(C(F)(F)F)c2)cc1C [compound 77]
pest or weed control at 320 g/ha (AMARE [1]): 80% | herbizide Wirkung ECHCG (ECHCG): 90 | pest or weed control at 320 g/ha (LOLMU): 90% | pest or weed control at 320 g/ha (SETVI): 90%

chromatographic logP [5]: 3.71
SMILES: CC(C)N(C=Nc1ncc(Cl)cc1-c1ccc(Cl)c(C(F)(F)F)c1)C(C)C [compound 12]

SMILES: CCN(C)C=Nc1ncc(-c2ccc(Cl)c(Cl)c2)cc1C [compound 94]
pest or weed control at 320 g/ha (SETVI): 90% | pest or weed control at 320 g/ha (VERPE [2]): 80% | pest or weed control at 320 g/ha (VIOTR [3]): 80%

SMILES: CCN(C)C=Nc1ncc(C)cc1-c1ccc(Cl)c(C(F)(F)F)c1 [compound 2]
pest or weed control at 320 g/ha (SETVI): 90% | pest or weed control at 320 g/ha (VIOTR [3]): 90%

SMILES: CCN(C)C=Nc1ncc(C)cc1-c1ccc(Cl)c(C(F)(F)F)c1 [compound 127]
pest or weed control at 320 g/ha (AMARE [1]): 90% | pest or weed control at 320 g/ha (MATIN): 80% | herbizide Wirkung SETVI (SETVI): 90 | herbizide Wirkung VIOTR (VIOTR [3]; 320 G/HA): 80

SMILES: Cc1cc(-c2ccc(Cl)c(Cl)c2)cnc1N=CN(C)C [compound 95]
pest or weed control at 320 g/ha (SETVI): 80% | pest or weed control at 320 g/ha (VIOTR [3]): 80%

chromatographic logP [5]: 2.03
SMILES: Cc1cnc(N=CN(C(C)C)C(C)C)c(-c2ccc(Cl)c(C(F)(F)F)c2)c1 [compound 8]

chromatographic logP [5]: 1.98
SMILES: FC(F)(F)c1ccc(-c2cc(Cl)cnc2N=CN2CCCC2)cc1Cl [compound 26]

chromatographic logP [5]: 1.48
SMILES: CCN(C)C=Nc1ncc(C)cc1-c1ccc(F)c(C(F)(F)F)c1 [compound 18]
pest or weed control at 320 g/ha (AMARE [1]): 80% | pest or weed control at 320 g/ha (SETVI): 90% | pest or weed control at 320 g/ha (VERPE [2]): 100% | pest or weed control at 320 g/ha (VIOTR [3]): 90%

chromatographic logP [5]: 1.74
SMILES: CC(=Nc1ncc(Cl)cc1-c1ccc(F)c(C(F)(F)F)c1)N1CCCCC1 [compound 22]

SMILES: CCN(C)C=Nc1ncc(-c2ccc(Cl)c(C(F)(F)F)c2)cc1C [compound 175]
herbizide Wirkung AMARE (AMARE [1]): 80 | herbizide Wirkung ECHCG (ECHCG): 90 | herbizide Wirkung VERPE (VERPE [2]): 90

chromatographic logP [5]: 3.63
SMILES: CCN(C=Nc1ncc(Cl)cc1-c1ccc(Cl)c(C(F)(F)F)c1)CC [compound 11]
pest or weed control at 320 g/ha (AMARE [1]): 80% | pest or weed control at 320 g/ha (VIOTR [3]): 80%

chromatographic logP [5]: 4.19
SMILES: CC(C)N(C=Nc1ncc(Cl)cc1-c1ccc(F)c(C(F)(F)F)c1)C(C)C [compound 21]

chromatographic logP [5]: 0.87
SMILES: CC(=Nc1ncc(C)cc1-c1ccc(Cl)c(C(F)(F)F)c1)N(C)C [compound 9]

SMILES: CCN(C)C=Nc1ncc(-c2cccc(C)c2)cc1C [compound 105]
herbizide Wirkung ECHCG (ECHCG): 80 | pest or weed control at 320 g/ha (SETVI): 80%

SMILES: CCN(C=Nc1ncc(Cl)cc1-c1ccc(F)c(C(F)(F)F)c1)CC [compound 140]
herbizide Wirkung MATIN (MATIN; 320 G/HA): 80 | herbizide Wirkung SETVI (SETVI): 80 | herbizide Wirkung AMARE (AMARE [4]): 80 | herbizide Wirkung PHBPU (PHBPU): 80 | herbizide Wirkung VERPE (VERPE [7]): 80

chromatographic logP [5]: 3.09
SMILES: CCN(C)C=Nc1ncc(Br)cc1-c1ccc(Cl)c(C(F)(F)F)c1 [compound 17]

SMILES: CCN(C)C=Nc1ncc(C)cc1-c1ccc(F)c(C(F)(F)F)c1 [compound 142]
herbizide Wirkung AMARE (AMARE [1]): 80 | pest or weed control at 320 g/ha (MATIN): 80% | herbizide Wirkung SETVI (SETVI): 90 | pest or weed control at 320 g/ha (STEME): 90% | herbizide Wirkung VERPE (VERPE [2]): 90

chromatographic logP [5]: 1.75
SMILES: Fc1ccc(-c2cc(Cl)cnc2N=CN2CCCC2)cc1C(F)(F)F [compound 16]
pest or weed control at 320 g/ha (LOLMU): 80% | pest or weed control at 320 g/ha (SETVI): 100% | pest or weed control at 320 g/ha (STEME): 80% | pest or weed control at 320 g/ha (VERPE [2]): 80%
